Source: US20250145596A1, “HETEROCYCLIC GLP-1 AGONISTS” (Gasherbrum Bio, Inc., priority 2022, published 2025)

Target: T1, GLP-1 Receptor (Homo sapiens, UniProt P43220)
T1 construct: host or cells: HEK293/CRE-Luc
Assay: GLP-1R agonist cAMP stimulation assay
Assay type: cell-based
Conditions: HEK293/CRE-Luc cell line stably expressing the GLP-1 Receptor; 30 min at 37° C.; cAMP dynamic 2 Kit
Description: Activation of GLP-1 receptor is known to stimulate cyclic AMP (cAMP) production in cells which indicates primary coupling to the Gas subunit of the G protein heterotrimeric complex.
To optimize functional activity directed toward Gas coupling, a HEK293/CRE-Luc cell line developed by HDB stably expressing the GLP-1 Receptor was used. 200× concentration of compound working solutions were prepared (Agilent Technologies Bravo) with ½ log serial dilution in 384-well Echo LDV plate (Labcyte, Cat #LP-0200). 50 nL/well 200× concentration of compound working solutions were moved to 384-well white low volume plate (Greiner, Cat #784075) using Labcyte ECHO550. 1×10^5 cells/mL HEK293/GLPlR/CRE-LUC (HD Biosciences) cell suspensions prepared with assay buffer [DPBS containing 0.5 mM IBMX (Sigma, Cat #15879) and 0.1% BSA (GENVIEW, Cat #FA016-100g)], 10 μL cell suspensions were added to each well of previous generated assay plate which already contains 50 nL compound at 200× concentration using ThermoFisher Multidrop Combi (1000 cells/well). Seal the plate and incubate at 37° C. with 5% CO2 for 30 min.
After incubation the cAMP assay signal was generated using cAMP dynamic 2 Kit (Cisbio). 5 μL cAMP-d2 working solution was added to each well, followed with 5 μL Anti-cAMP antibody-cryptate working solution added to each well using ThermoFisher Multidrop Combi. Incubate at room temperature for 1 hour protected from light. Read the fluorescence at 665 and 615 nm with Reader PerkinElmer EnVision.
% Activity=100%×(mean RLU of test sample mean RLU of vehicle control)/(mean RLU of MAX control−mean RLU of vehicle control))

T1 sequence (P43220 24-463): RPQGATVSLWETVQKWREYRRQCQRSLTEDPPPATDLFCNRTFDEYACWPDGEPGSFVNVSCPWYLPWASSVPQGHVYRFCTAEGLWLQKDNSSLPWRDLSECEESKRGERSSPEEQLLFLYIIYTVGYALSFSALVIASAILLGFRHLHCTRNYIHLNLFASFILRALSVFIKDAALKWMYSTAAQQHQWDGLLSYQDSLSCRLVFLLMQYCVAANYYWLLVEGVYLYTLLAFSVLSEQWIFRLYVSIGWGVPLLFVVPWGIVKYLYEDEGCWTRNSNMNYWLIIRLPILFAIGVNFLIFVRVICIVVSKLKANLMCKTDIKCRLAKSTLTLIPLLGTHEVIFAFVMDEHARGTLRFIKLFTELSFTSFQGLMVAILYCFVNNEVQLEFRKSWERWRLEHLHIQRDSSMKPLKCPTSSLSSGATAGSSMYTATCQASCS

EC50, < 1 nM:
C[C@]1(c2ccc(Cl)cn2)Oc2cccc(C3CCN(Cc4ncc(-c5nnc(C(F)(F)F)[nH]5)cc4CC4(C#N)CC4)CC3F)c2O1 (single isomer, unassigned) [Example 26]
CC1(c2ccc(Cl)cc2F)Oc2cc(F)cc(C3CCN(Cc4ncc(-c5nnc(C(F)(F)F)[nH]5)cc4CC4(C#N)CC4)CC3)c2O1 (single isomer, unassigned) [Example 13, 1-{[2-({4-[2-(4-chloro-2-fluorophenyl)-6-fluoro-2-methyl-2H-1,3-benzodioxol-4-yl]piperidin-1-yl}methyl)-5-[5-(trifluoromethyl)-4H-1,2,4-triazol-3-yl]pyridin-3-yl]methyl}cyclopropane-1-carbonitrile]
CC1(c2ccc(Cl)cc2F)Oc2ccc(F)c(C3CCN(Cc4ncc(-c5nnc(C(F)(F)F)[nH]5)cc4CC4(C#N)CC4)CC3)c2O1 (stereo not drawn) [Example 15, 1-{[2-({4-[2-(4-Chloro-2-fluorophenyl)-5-fluoro-2-methyl-2H-1,3-benzodioxol-4-yl]piperidin-1-yl}methyl)-5-[5-(trifluoromethyl)-4H-1,2,4-triazol-3-yl]pyridin-3-yl]methyl}cyclopropane-1-carbonitrile]
C[C@]1(c2ccc(Cl)cc2F)Oc2cccc(C3CCN(Cc4ncc(-c5noc(=O)[nH]5)cc4CS(C)(=O)=O)CC3)c2O1 [Example 58, 3-[6-({4-[(2S)-2-(4-chloro-2-fluorophenyl)-2-methyl-2H-1,3-benzodioxol-4-yl]piperidin-1-yl}methyl)-5-(methanesulfonylmethyl)pyridin-3-yl]-2,5-dihydro-1,2,4-oxadiazol-5-one]
N#CC1(Cc2cc(-c3nnc(C(F)(F)F)[nH]3)cnc2CN2CCC(c3ncc(F)c(OCc4ccc(Cl)cc4F)n3)CC2)CC1 [Example 36, 1-((2-((4-(4-((4-chloro-2-fluorobenzyl)oxy)-5-fluoropyrimidin-2-yl)piperidin-1-yl)methyl)-5-(5-(trifluoromethyl)-4H-1,2,4-triazol-3-yl)pyridin-3-yl)methyl)cyclopropane-1-carbonitrile]
Cc1ccc(C2(C)Oc3cccc(C4CCN(Cc5ncc(-c6nnc(C(F)(F)F)[nH]6)cc5CC5(C#N)CC5)CC4)c3O2)c(Cl)c1 (stereo not drawn) [Example 6, 1-((2-((4-(2-(2-Chloro-4-methylphenyl)-2-methylbenzo[d][1,3]dioxol-4-yl)piperidin-1-yl)methyl)-5-(5-(trifluoromethyl)-4H-1,2,4-triazol-3-yl)pyridin-3-yl)methyl)cyclopropane-1-carbonitrile]
CC1(c2ccc(Cl)cc2F)Oc2c(F)ccc(C3CCN(Cc4ncc(-c5nnc(C(F)(F)F)[nH]5)cc4CC4(C#N)CC4)CC3)c2O1 (stereo not drawn) [Example 12, 1-{[2-({4-[2-(4-chloro-2-fluorophenyl)-7-fluoro-2-methyl-2H-1,3-benzodioxol-4-yl]piperidin-1-yl}methyl)-5-[5-(trifluoromethyl)-4H-1,2,4-triazol-3-yl]pyridin-3-yl]methyl}cyclopropane-1-carbonitrile]
Cc1ccc(C2(C)Oc3cccc(C4=CCN(Cc5ncc(-c6nnc(C(F)(F)F)[nH]6)cc5CC5(C#N)CC5)CC4)c3O2)c(Cl)c1 (stereo not drawn) [Example 65, 1-((2-((4-(2-(2-chloro-4-methylphenyl)-2-methylbenzo[d][1,3]dioxol-4-yl)-3,6-dihydropyridin-1(2H)-yl)methyl)-5-(5-(trifluoromethyl)-4H-1,2,4-triazol-3-yl)pyridin-3-yl)methyl)cyclopropane-1-carbonitrile]
C[C@]1(c2ccc(Cl)cn2)Oc2cccc(C3CCN(Cc4ncc(-c5nnc(C(F)(F)F)[nH]5)cc4CC4(C#N)CC4)CC3F)c2O1 (single isomer, unassigned) [Example 25]
N#CC1(Cc2cc(-c3nnc(C(F)(F)F)[nH]3)cnc2CN2CC=C(c3cccc(OCc4ccc(Cl)cc4F)n3)CC2)CC1 [Example 47, 1-{[2-({6-[(4-chloro-2-fluorophenyl)methoxy]-1′,2′,3′,6′-tetrahydro-[2,4′-bipyridin]-1′-yl}methyl)-5-[5-(trifluoromethyl)-4H-1,2,4-triazol-3-yl]pyridin-3-yl]methyl}cyclopropane-1-carbonitrile]
C[C@]1(c2ccc(Cl)cn2)Oc2cccc(C3CCN(Cc4ncc(-c5noc(=O)[nH]5)cc4CC4(C#N)CC4)CC3)c2O1 [Example 77]
CC1(c2ccc(C(F)(F)F)cc2Cl)Oc2cccc(C3CCN(Cc4ncc(-c5nnc(C(F)(F)F)[nH]5)cc4CC4(C#N)CC4)CC3)c2O1 (stereo not drawn) [Example 9, 1-((2-((4-(2-(2-Chloro-4-(trifluoromethyl)phenyl)-2-methylbenzo[d][1,3]dioxol-4-yl)piperidin-1-yl)methyl)-5-(5-(trifluoromethyl)-4H-1,2,4-triazol-3-yl)pyridin-3-yl)methyl)cyclopropane-1-carbonitrile]
N#CC1(Cc2cc(-c3nnc(C(F)(F)F)[nH]3)cnc2CN2CCC(c3cccc(OCc4ccc(Cl)c5ccoc45)n3)CC2)CC1 [Example 64, 1-((2-((4-(6-((4-chlorobenzofuran-7-yl)methoxy)pyridin-2-yl)piperidin-1-yl)methyl)-5-(5-(trifluoromethyl)-4H-1,2,4-triazol-3-yl)pyridin-3-yl)methyl)cyclopropane-1-carbonitrile]
C[C@]1(c2ccc(Cl)cc2F)Oc2cccc(C3CCN(Cc4ncc(-c5nnc(C(F)(F)F)[nH]5)cc4CC4(C#N)CC4)CC3F)c2O1 (single isomer, unassigned) [Example 27]
C[C@]1(c2ccc(Cl)cc2F)Oc2cccc(C3CCN(Cc4ncc(-c5nnn[nH]5)cc4CC4(C#N)CC4)CC3)c2O1 [Example 71]
N#CC1(Cc2cc(-c3nnc(C(F)(F)F)[nH]3)cnc2CN2CCC(c3ccc(F)c(OCc4ccc(Cl)cc4F)n3)CC2)CC1 [Example 33, 1-((2-((4-(6-((4-chloro-2-fluorobenzyl)oxy)-5-fluoropyridin-2-yl)piperidin-1-yl)methyl)-5-(5-(trifluoromethyl)-4H-1,2,4-triazol-3-yl)pyridin-3-yl)methyl)cyclopropane-1-carbonitrile]
CC1(c2ccc(F)cc2F)Oc2cccc(C3CCN(Cc4ncc(-c5nnc(C(F)(F)F)[nH]5)cc4CC4(C#N)CC4)CC3)c2O1 (stereo not drawn) [Example 5, 1-{[2-({4-[2-(2,4-difluorophenyl)-2-methyl-2H-1,3-benzodioxol-4-yl]piperidin-1-yl}methyl)-5-[5-(trifluoromethyl)-4H-1,2,4-triazol-3-yl]pyridin-3-yl]methyl}cyclopropane-1-carbonitrile]
N#CC1(Cc2cc(-c3nnc(C(F)(F)F)[nH]3)cnc2CN2CCN(c3ccc(F)c(OCc4ccc(Cl)cc4F)c3)CC2)CC1 [Example 41, 1-({2-[(4-{3-[(4-chloro-2-fluorophenyl)methoxy]-4-fluorophenyl}piperazin-1-yl)methyl]-5-[5-(trifluoromethyl)-4H-1,2,4-triazol-3-yl]pyridin-3-yl}methyl)cyclopropane-1-carbonitrile]

EC50, 1 to 100 nM:
C[C@]1(c2ccc(Cl)cc2F)Oc2cccc(C3CCN(Cc4ncc(CCC(=O)O)cc4CC4(C#N)CC4)CC3)c2O1 [Example 21, (S)-3-(6-((4-(2-(4-chloro-2-fluorophenyl)-2-methylbenzo[d][1,3]dioxol-4-yl)piperidin-1-yl)methyl)-5-((1-cyanocyclopropyl)methyl)pyridin-3-yl)propanoic acid]
C[C@]1(c2ccc(Cl)cc2F)Oc2cccc(C3CCN(Cc4ncc(-c5nnc(C(F)(F)F)[nH]5)cc4C#N)CC3)c2O1 [Example 93]
CC(c1cc(-c2nnc(C(F)(F)F)[nH]2)cnc1CN1CCC(c2cccc3c2O[C@@](C)(c2ccc(Cl)cc2F)O3)CC1)S(C)(=O)=O (stereo partly drawn) [Example 60, 2-((4-((S)-2-(4-chloro-2-fluorophenyl)-2-methylbenzo[d][1,3]dioxol-4-yl)piperidin-1-yl)methyl)-3-(1-(methylsulfonyl)ethyl)-5-(5-(trifluoromethyl)-4H-1,2,4-triazol-3-yl)pyridine]
CC1(c2ccc(Cl)cc2F)Oc2cccc(C3CCN(Cc4ncc(-c5nnc(C(F)(F)F)[nH]5)cc4CC4(C#N)CC4)CC3O)c2O1 (single isomer, unassigned) [Example 23, 1-[(2-{[(3,4-trans)-4-[2-(4-chloro-2-fluorophenyl)-2-methyl-2H-1,3-benzodioxol-4-yl]-3-hydroxypiperidin-1-yl]methyl}-5-[5-(trifluoromethyl)-4H-1,2,4-triazol-3-yl]pyridin-3-yl)methyl]cyclopropane-1-carbonitrile]
N#CC1(Cc2cc(-c3noc(=O)[nH]3)cnc2CN2CCC(c3cccc(OCc4ccc(Cl)cc4F)n3)CC2)CC1 [Example 82]
Cc1cc(-c2noc(=O)[nH]2)nnc1CN1CCC(c2cccc3c2O[C@@](C)(c2ccc(Cl)cc2F)O3)CC1 [Example 51, (S)-3-(6-((4-(2-(4-chloro-2-fluorophenyl)-2-methylbenzo[d][1,3]dioxol-4-yl)piperidin-1-yl)methyl)-5-methylpyridazin-3-yl)-1,2,4-oxadiazol-5(4H)-one]
